Assay results published in patent publication US4780313A (Takeda Chemical Industries, Ltd., priority 1985, dated 1988).

What was measured:
[1] = system: Meth-A fibrosarcoma cells (Meth-A tumor cells); experiment: Antitumor activity, subcutaneous administration, Meth-A tumor-bearing mice (Examples 1 and 4); type: in vivo, female BALB/c mice; details: Table 4, day 21
Method: (§1) Meth-A fibrosarcoma cells (Meth-A tumor cells) (1×10^6 cells) were transplanted into each female BALB/c mice (weighing about 20 g) subcutaneously in the flank using a syringe. Seven days after tumor transplantation, mice in which tumor was larger than a certain defined size were chosen and grouped and administration of the test agent was started. The agent was administered subcutaneously in the opposite flank relative to the tumor transplantation site once daily for 10 consecutive days. Each ingredient of the test agent was dissolved in physiological saline (solvent) supplemented in a form of a single preparation with 5% of normal mouse serum in a concentration such that the dose of the solution amounted to 0.1 ml/20 g of mouse body weight. The antitumor effect was evaluated by measuring the tumor weight in each mouse 21 days after tumor transplantation, determining the average tumor weight for each group and calculating the tumor weight ratio (T/C %) between the dosed group (T; 5 animals per group) and the untreated control group (C; 5 to 10 animals per group). The daily dose of each ingredients was expressed in terms of the ingredient weight (mcg) per mouse.

[2] = Body weight gain of tumor-bearing mice, subcutaneous administration (Examples 1 and 4); type: in vivo, female BALB/c mice; details: Table 4; TMD-5 200 mcg/mouse/day alone s.c.
Method: as §1

[3] = TMD-5 200 mcg/mouse/day alone s.c. x10 days
[4] = TMD-76 200 mcg/mouse/day alone s.c. x10 days

| SMILES | Tumor weight (mg) Mean ± SD [1, 3] | Tumor weight ratio (T/C %) [1, 3] | Body weight gain (g) (day 7 to day 21) [2] | Tumor weight (mg) Mean ± SD [1, 4] | Tumor weight ratio (T/C %) [1, 4] |
| --- | --- | --- | --- | --- | --- |
| CC(=O)N[C@H]1C(O)O[C@H](CO)[C@@H](O)[C@@H]1O[C@H](C)C(=O)NC(C)(C)C(=O)N[C@H](CCC(=O)O)C(N)=O (stereo partly drawn) [TMD-5, N-acetylmuramylaminoisobutyryl-D-isoglutamine] | 5,662 ± 1,097 mg | 99% | 3.0 g |  |  |
| COC(=O)CC[C@@H](NC(=O)[C@@H](NC(=O)[C@@H](C)O[C@H]1[C@H](O)[C@@H](COC(=O)CCC2=C(C)C(=O)C(OC)=C(OC)C2=O)OC(O)[C@@H]1NC(C)=O)C(C)C)C(N)=O (stereo partly drawn) [TMD-76, 6-0-[3-(2,3-dimethoxy-5-methyl-1,4-benzoquinon-6-yl)propionyl]-N-acetylmuramyl-L-valyl-D-isoglutamine methyl ester] |  |  |  | 5,550 ± 1,776 mg | 97% |
